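96-well plates; 48 h exposure; 5 concentrations. Endpoints by linear interpolation between flanking doses. Not reached: highest tested concentration assigned. GI50 is the concentration that inhibits growth by half.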 Active and inactive are the calls of the source. Rule as the data show it: active = GI50 up to about 1.1 µM and inactive = higher.
Assays:
Experiment in all cases: NCI anticancer screen, dose series, 48 h
SF-268 = test system: SF-268
KM12 = test system: KM12
TK-10 = test system: TK-10
MDA-MB-231 = test system: MDA-MB-231
OVCAR-5 = test system: OVCAR-5
PC-3 = test system: PC-3
OVCAR-8 = test system: OVCAR-8
K562 = test system: K562
DU-145 = test system: DU-145
HOP-62 = test system: HOP-62
MDA-MB-435 = test system: MDA-MB-435
BT-549 = test system: BT-549
M14 = test system: M14
UO-31 = test system: UO-31
SK-MEL-5 = test system: SK-MEL-5
HCT-116 = test system: HCT-116
A498 = test system: A498
NCI-H460 = test system: NCI-H460
SK-OV-3 = test system: SK-OV-3
RPMI-8226 = test system: RPMI-8226
SNB-19 = test system: SNB-19
MDA-N = test system: MDA-N
SK-MEL-28 = test system: SK-MEL-28
NCI-H226 = test system: NCI-H226
SF-539 = test system: SF-539
OVCAR-4 = test system: OVCAR-4
A549 = test system: A549
NCI-H522 = test system: NCI-H522
SF-295 = test system: SF-295
HCC 2998 = test system: HCC 2998
MOLT-4 = test system: MOLT-4
SK-MEL-2 = test system: SK-MEL-2
HCT-15 = test system: HCT-15
COLO 205 = test system: COLO 205
T47D = test system: T47D
SN12C = test system: SN12C
LOX IMVI = test system: LOX IMVI
UACC-257 = test system: UACC-257
786-0 = test system: 786-0
EKVX = test system: EKVX
U-251 = test system: U-251
Malme-3M = test system: Malme-3M
HT-29 = test system: HT-29
SW-620 = test system: SW-620
NCI-H23 = test system: NCI-H23
MCF7 = test system: MCF7
HOP-92 = test system: HOP-92
CCRF-CEM = test system: CCRF-CEM
HL-60 = test system: HL-60
UACC-62 = test system: UACC-62
NCI/ADR-RES = test system: NCI/ADR-RES
OVCAR-3 = test system: OVCAR-3
IGROV-1 = test system: IGROV-1
SR = test system: SR
ACHN = test system: ACHN
SNB-75 = test system: SNB-75
RXF 393 = test system: RXF 393
CAKI-1 = test system: CAKI-1
Hs-578T = test system: Hs-578T

Measured: GI50

c1ccc(CCN(Cc2nc3ccccc3[nH]2)Cc2nc3ccccc3[nH]2)cc1
inactive: SF-268 13.6 µM | KM12 12.3 µM | TK-10 16.3 µM | MDA-MB-231 13.2 µM | OVCAR-5 23.8 µM | PC-3 11.5 µM | OVCAR-8 6.18 µM | K562 2.86 µM | DU-145 14.4 µM | HOP-62 11.3 µM | MDA-MB-435 12.4 µM | BT-549 12.1 µM | M14 12.9 µM | UO-31 10.9 µM | SK-MEL-5 3.86 µM | HCT-116 4.67 µM | A498 13.6 µM | NCI-H460 10 µM | SK-OV-3 24.4 µM | RPMI-8226 3.05 µM | SNB-19 16.2 µM | MDA-N 16.2 µM | SK-MEL-28 13.7 µM | NCI-H226 27.6 µM | SF-539 20.7 µM | OVCAR-4 17.5 µM | A549 17.1 µM | NCI-H522 17 µM | SF-295 14.8 µM | HCC 2998 16.9 µM | MOLT-4 6.59 µM | SK-MEL-2 18 µM | COLO 205 13.4 µM | T47D 1.79 µM | SN12C 14.6 µM | LOX IMVI 10.1 µM | UACC-257 14.5 µM | 786-0 15.9 µM | EKVX 39.1 µM | U-251 6.59 µM | Malme-3M 21.6 µM | HT-29 17.3 µM | SW-620 10.3 µM | NCI-H23 16 µM | MCF7 11.7 µM | HOP-92 12.5 µM | CCRF-CEM 3.39 µM | HL-60 2.41 µM | UACC-62 13.4 µM | NCI/ADR-RES 5.93 µM | OVCAR-3 20.2 µM | IGROV-1 8.15 µM | SR 9.27 µM | ACHN 4.79 µM | SNB-75 16.4 µM | RXF 393 13.3 µM | CAKI-1 3.85 µM | Hs-578T 20.2 µM
7.45 µM: HCT-15

Cc1nc2c(o1)C(=O)c1ccccc1/C2=N/c1ccc(N2CCOCC2)cc1
active: RXF 393 0.421 µM
inactive: SF-268 4.48 µM | KM12 16 µM | TK-10 48 µM | MDA-MB-231 2.7 µM | OVCAR-5 18.2 µM | PC-3 2.08 µM | OVCAR-8 2.81 µM | K562 3.28 µM | DU-145 3.31 µM | HOP-62 8.85 µM | MDA-MB-435 1.94 µM | BT-549 2.12 µM | M14 1.8 µM | UO-31 3.43 µM | SK-MEL-5 1.79 µM | HCT-116 3.35 µM | A498 18.7 µM | NCI-H460 11.1 µM | SK-OV-3 37.8 µM | RPMI-8226 3.38 µM | SNB-19 8.47 µM | MDA-N 1.93 µM | SK-MEL-28 3.15 µM | NCI-H226 20.5 µM | SF-539 2.49 µM | OVCAR-4 2.99 µM | A549 6.19 µM | NCI-H522 2.48 µM | SF-295 2.52 µM | HCC 2998 34.1 µM | MOLT-4 4.91 µM | SK-MEL-2 2.75 µM | COLO 205 23.7 µM | T47D 3.01 µM | SN12C 3.18 µM | LOX IMVI 2.01 µM | UACC-257 1.94 µM | 786-0 22.6 µM | EKVX 7.73 µM | U-251 3.52 µM | Malme-3M 1.74 µM | HT-29 24.8 µM | SW-620 3.89 µM | NCI-H23 2.39 µM | MCF7 2.77 µM | HOP-92 10.7 µM | CCRF-CEM 4.57 µM | HL-60 1.83 µM | UACC-62 2.03 µM | NCI/ADR-RES 2.88 µM | OVCAR-3 1.69 µM | IGROV-1 8.71 µM | SR 3.86 µM | ACHN 3.61 µM | SNB-75 2.46 µM | CAKI-1 13.2 µM | Hs-578T 3.22 µM
3.66 µM: HCT-15

Reference: ChEMBL document CHEMBL1201862, “PubChem BioAssay data set” (2004)
